Molecular target: T1, 3-oxo-5-alpha-steroid 4-dehydrogenase 1 (Rattus norvegicus, UniProt P24008)
T1 sequence (P24008 whole entry): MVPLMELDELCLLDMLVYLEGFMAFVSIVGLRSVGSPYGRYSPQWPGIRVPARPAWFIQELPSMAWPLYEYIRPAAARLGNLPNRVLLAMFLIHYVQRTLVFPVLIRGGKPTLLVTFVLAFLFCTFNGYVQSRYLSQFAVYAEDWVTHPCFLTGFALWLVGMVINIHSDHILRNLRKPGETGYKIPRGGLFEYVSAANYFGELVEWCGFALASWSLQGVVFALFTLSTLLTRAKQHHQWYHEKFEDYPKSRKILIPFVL
Test: Compound was tested for its inhibitory potency against rat Steroid 5-alpha-reductase type 1 expressed in transformed yeast Saccharomyces cerevisiae

SMILES	IC50 [µM]
CCN(CCCCNC(=O)[C@H]1CCC2C3CCC4NC(=O)C=C[C@]4(C)C3CC[C@@]21C)c1ccc2c(=O)[nH][nH]c(=O)c2c1 (some centres not stated)	0.5
CC(C)(C)NC(=O)[C@H]1CC[C@H]2[C@@H]3CC[C@H]4NC(=O)C=C[C@]4(C)[C@H]3CC[C@]12C [FINASTERIDE]	40
